Assay results from ChEMBL document CHEMBL5143523, “Construction and activity evaluation of novel benzodioxane derivatives as dual-target antifungal inhibitors” (Eur J Med Chem, 2022).
Converted amounts (≈) assume the structure as drawn.

What was measured:
Candida albicans [1] = experiment: Antifungal activity against Candida albicans ATCC 10231 assessed as fungal growth inhibition measured after 72 hrs by CLSI protocol based liquid medium dilution method; type: functional
Pichia kudriavzevii = experiment: Antifungal activity against Candida krusei ATCC 6258 assessed as fungal growth inhibition measured after 72 hrs by CLSI protocol based liquid medium dilution method; type: functional
Nakaseomyces glabratus = experiment: Antifungal activity against Candida glabrata ATCC 0001 assessed as fungal growth inhibition measured after 72 hrs by CLSI protocol based liquid medium dilution method; type: functional
Candida tropicalis = experiment: Antifungal activity against Candida tropicalis ATCC 1369 assessed as fungal growth inhibition measured after 72 hrs by CLSI protocol based liquid medium dilution method; type: functional
Aspergillus fumigatus = experiment: Antifungal activity against Aspergillus fumigatus KM8001 assessed as fungal growth inhibition measured after 72 hrs by CLSI protocol based liquid medium dilution method; type: functional
Candida albicans [2] = experiment: Antifungal activity against fluconazole resistant Candida albicans strain 17# assessed as fungal growth inhibition measured after 72 hrs by CLSI protocol based liquid medium dilution method; type: functional
Candida albicans [3] = experiment: Antifungal activity against fluconazole resistant Candida albicans strain CaR assessed as fungal growth inhibition measured after 72 hrs by CLSI protocol based liquid medium dilution method; type: functional
Candida albicans [4] = experiment: Antifungal activity against fluconazole resistant Candida albicans strain 103 assessed as fungal growth inhibition measured after 72 hrs by CLSI protocol based liquid medium dilution method; type: functional
Candida albicans [5] = experiment: Antifungal activity against fluconazole resistant Candida albicans strain 901 assessed as fungal growth inhibition measured after 72 hrs by CLSI protocol based liquid medium dilution method; type: functional
Candida albicans [6] = experiment: Antifungal activity against fluconazole resistant Candida albicans strain 904 assessed as fungal growth inhibition measured after 72 hrs by CLSI protocol based liquid medium dilution method; type: functional
Candida albicans [7] = experiment: Induction of apoptosis in Candida albicans ATCC SC5314 cells assessed as live cells at 8 ug/ml incubated for 72 hrs by Annexin V-FITC/PI staining based flow cytometry method (reference value: 95.56%); type: functional; conditions: dose 8 µg/ml
Candida albicans [8] = experiment: Induction of apoptosis in Candida albicans ATCC SC5314 cells assessed as early apoptotic cells at 8 ug/ml incubated for 72 hrs by Annexin V-FITC/PI staining based flow cytometry method (reference value: 0.56%); type: functional; conditions: dose 8 µg/ml
Candida albicans [9] = experiment: Induction of apoptosis in Candida albicans ATCC SC5314 cells assessed as necrotic cells at 8 ug/ml incubated for 72 hrs by Annexin V-FITC/PI staining based flow cytometry method (reference value: 3.76%); type: functional; conditions: dose 8 µg/ml
Candida albicans [10] = experiment: Induction of apoptosis in Candida albicans ATCC SC5314 cells assessed as late apoptotic cells at 8 ug/ml incubated for 72 hrs by Annexin V-FITC/PI staining based flow cytometry method (reference value: 0.12%); type: functional; conditions: dose 8 µg/ml
Candida albicans [11] = experiment: Antifungal activity against Candida albicans ATCC SC5314 assessed as decrease in ergosterol content at 4 ug/ml incubated for 48 hrs by LC-MS analysis (reference value: 90.6%); type: functional; design: scale not given: the % may be the effect or the level left; conditions: dose 4 µg/ml
Candida albicans [12] = experiment: Antifungal activity against Candida albicans ATCC SC5314 assessed as change in squalene level at 4 ug/ml incubated for 48 hrs by LC-MS analysis; type: functional; conditions: dose 4 µg/ml
Candida albicans [13] = experiment: Antifungal activity against Candida albicans ATCC SC5314 assessed as change in lanosterol level at 4 ug/ml incubated for 48 hrs by LC-MS analysis (reference value: 3.7%); type: functional; conditions: dose 4 µg/ml
Candida albicans [14] = experiment: Antifungal activity against Candida albicans ATCC SC5314 assessed as change in eburicol level at 4 ug/ml incubated for 48 hrs by LC-MS analysis (reference value: 1.4%); type: functional; conditions: dose 4 µg/ml
Candida albicans [15] = experiment: Antifungal activity against Candida albicans ATCC SC5314 assessed as change in unknown sterol level at 4 ug/ml incubated for 48 hrs by LC-MS analysis (reference value: 4.3%); type: functional; conditions: dose 4 µg/ml
[16] = target: Lanosterol 14-alpha demethylase (Candida albicans (strain SC5314 / ATCC MYA-2876) (Yeast), UniProt P10613); experiment: Inhibition of CYP51 in Candida albicans ATCC SC5314 incubated for 30 mins using eburicol as substrate in presence of NADPH by HPLC analysis
Lanosterol 14-alpha demethylase, sequence (P10613 whole entry): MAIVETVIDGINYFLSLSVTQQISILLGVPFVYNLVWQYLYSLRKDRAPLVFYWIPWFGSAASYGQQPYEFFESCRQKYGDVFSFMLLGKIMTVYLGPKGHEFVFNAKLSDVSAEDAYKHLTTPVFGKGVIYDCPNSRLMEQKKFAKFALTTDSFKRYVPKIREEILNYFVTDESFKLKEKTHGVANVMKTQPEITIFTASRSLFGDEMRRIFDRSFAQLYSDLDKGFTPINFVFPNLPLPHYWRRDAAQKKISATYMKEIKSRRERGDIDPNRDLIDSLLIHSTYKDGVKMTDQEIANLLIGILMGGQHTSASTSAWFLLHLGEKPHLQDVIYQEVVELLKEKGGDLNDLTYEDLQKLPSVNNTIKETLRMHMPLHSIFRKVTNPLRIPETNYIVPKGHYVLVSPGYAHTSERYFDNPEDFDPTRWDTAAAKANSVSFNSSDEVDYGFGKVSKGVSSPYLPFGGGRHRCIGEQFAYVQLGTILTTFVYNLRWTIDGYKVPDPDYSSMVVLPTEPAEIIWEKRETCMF

Candida albicans [17] = experiment: Antifungal activity against Candida albicans assessed as fungal growth inhibition measured after 72 hrs by CLSI protocol based liquid medium dilution method; type: functional

SMILES | MIC50 (Candida albicans [1]) [µg/mL] | MIC50 (Pichia kudriavzevii) [µg/mL] | MIC50 (Nakaseomyces glabratus) [µg/mL] | MIC50 (Candida tropicalis) [µg/mL] | MIC50 (Aspergillus fumigatus) [µg/mL] | other results
CCC(C)[C@H](NC(=O)c1ccc2c(c1)OCCO2)C(=O)N[C@@H](Cn1cncn1)c1ccccc1 (stereo partly specified) | 0.25 (≈ 0.539 µM) | 0.25 (≈ 0.539 µM) | 0.5 (≈ 1.08 µM) | 0.25 (≈ 0.539 µM) | 4 (≈ 8.63 µM) | 
CCC(C)[C@H](NC(=O)c1ccc2c(c1)OCCO2)C(=O)Nc1ccncc1 (stereo partly specified) | 0.5 (≈ 1.35 µM) | 1 (≈ 2.71 µM) | 2 (≈ 5.41 µM) | 0.5 (≈ 1.35 µM) | > 8 | 
CC(C)[C@H](NC(=O)c1cccc2c1OCCO2)C(=O)Nc1cccnc1 | 0.5 (≈ 1.41 µM) | 0.5 (≈ 1.41 µM) | 1 (≈ 2.81 µM) | 1 (≈ 2.81 µM) | > 8 | 
CCC(C)[C@H](NC(=O)c1cccc2c1OCCO2)C(=O)Nc1cccnc1 (stereo partly specified) | 0.5 (≈ 1.35 µM) | 2 (≈ 5.41 µM) | 1 (≈ 2.71 µM) | 0.5 (≈ 1.35 µM) | > 8 | 
OC(Cn1cncn1)(Cn1cncn1)c1ccc(F)cc1F [FLUCONAZOLE] | 0.25 (≈ 0.816 µM) | 0.5 (≈ 1.63 µM) | 0.25 (≈ 0.816 µM) | 0.5 (≈ 1.63 µM) | > 8 | MIC50 (Candida albicans [2]): > 8 µg/mL; MIC50 (Candida albicans [3]): > 8 µg/mL; MIC50 (Candida albicans [4]): > 8 µg/mL; MIC50 (Candida albicans [5]): > 8 µg/mL; MIC50 (Candida albicans [6]): > 8 µg/mL; Activity (Candida albicans [7]): 76.56%; Activity (Candida albicans [8]): 1.83%; Activity (Candida albicans [9]): 18.59%; Activity (Candida albicans [10]): 3.02%; Activity (Candida albicans [11]): 29.5%; Activity (Candida albicans [12]): 2.7%; Activity (Candida albicans [13]): 21.6%; Activity (Candida albicans [14]): 40.6%; Activity (Candida albicans [15]): 5.6%; IC50 [16]: 148 nM
CC(C)[C@H](NC(=O)c1cccc2c1OCCO2)C(=O)Nc1ccncc1 | 0.5 (≈ 1.41 µM) | 1 (≈ 2.81 µM) | 0.5 (≈ 1.41 µM) | 0.5 (≈ 1.41 µM) | 4 (≈ 11.3 µM) | MIC50 (Candida albicans [17]): 0.5 µg/mL (≈ 1.41 µM)
O=C(N[C@@H](Cn1ccnc1)c1ccccc1)c1ccc2c(c1)OCCO2 | 0.25 (≈ 0.716 µM) | 0.5 (≈ 1.43 µM) | 0.25 (≈ 0.716 µM) | 0.25 (≈ 0.716 µM) | > 8 | 
O=C(N[C@H](Cc1ccccc1)Cn1ccnc1)c1ccc2c(c1)OCCO2 | 0.5 (≈ 1.38 µM) | 0.5 (≈ 1.38 µM) | 0.25 (≈ 0.688 µM) | 0.5 (≈ 1.38 µM) | 4 (≈ 11 µM) | 
CCC(C)[C@H](NC(=O)c1cccc2c1OCCO2)C(=O)Nc1ccncc1 (stereo partly specified) | 1 (≈ 2.71 µM) | 0.5 (≈ 1.35 µM) | 2 (≈ 5.41 µM) | 0.5 (≈ 1.35 µM) | 4 (≈ 10.8 µM) | 
O=C(N[C@H](Cc1ccccc1)Cn1cncn1)c1cccc2c1OCCO2 | 0.25 (≈ 0.686 µM) | 0.5 (≈ 1.37 µM) | 0.5 (≈ 1.37 µM) | 0.25 (≈ 0.686 µM) | 4 (≈ 11 µM) | 
CCC(C)[C@H](NC(=O)c1ccc2c(c1)OCCO2)C(=O)N[C@@H](Cn1ccnc1)c1ccccc1 (stereo partly specified) | 0.125 (≈ 0.27 µM) | 0.25 (≈ 0.54 µM) | 0.125 (≈ 0.27 µM) | 0.5 (≈ 1.08 µM) | 2 (≈ 4.32 µM) | MIC50 (Candida albicans [2]): 2 µg/mL (≈ 4.32 µM); MIC50 (Candida albicans [3]): 2 µg/mL (≈ 4.32 µM); MIC50 (Candida albicans [4]): 1 µg/mL (≈ 2.16 µM); MIC50 (Candida albicans [5]): 2 µg/mL (≈ 4.32 µM); MIC50 (Candida albicans [6]): 4 µg/mL (≈ 8.65 µM)
O=C(N[C@@H](Cn1cncn1)c1ccccc1)c1ccc2c(c1)OCCO2 | 0.125 (≈ 0.357 µM) | 0.5 (≈ 1.43 µM) | 0.125 (≈ 0.357 µM) | 0.5 (≈ 1.43 µM) | > 8 | 
